Assay results as given in US9394297B2, “Amides as pim inhibitors” (AMGEN INC., priority 2012, dated 2016).

Legend:
[1] = molecular target: Pim-2 (Homo sapiens (Human), UniProt Q9P1W9); test: Pim enzyme assay (HTRF, 96-well), Pim-2; type: biochemical; conditions: full length recombinant Pim-2, biotinylated-BAD (S112) peptide, 10-point curve, 45 min RT, read-out: Pim-2 IC50 IP
Text: (§1) These cDNAs were used as templates in PCR reactions to produce full-length DNA clones of the PIMs. […] PCR products were digested with BclI and EcoRI for Pim-1 and BamHI and EcoRI for Pim-2 and ligated into a modified baculovirus transfer vector (pFastBac1) cleaved with BamHI and EcoRI. For bacterial expression, the same cleaved PCR products encoding Pim-1 or Pim-2 were ligated into a modified E. coli expression vector pET28(a) cleaved with BamHI and EcoRI. Amino-terminal hexahistidine tags followed by a thrombin cleavage site were previously added to the vectors using standard methods of molecular biology.
(§2) Recombinant baculoviruses expressing Pim-1 or Pim-2 were made using standard methods (Fastbac manual, Invitrogen, Carlsbad, Calif.). […] Cells were harvested by centrifugation and frozen at −80 C. For E. coli expression, cells carrying pET28-His6-Th-Pim-1 or pET28-His6-Th-Pim-2 were picked from a single colony and grown o/n in LB media. The o/n culture was used to inoculate a 2 liter flask with 500 mL media. This was grown o/n and used to inoculate 15-20 liters of Terrific Broth in a New Brunswick Scientific fermentor. The E. coli were grown at 37° C. to and OD600 >1.6. The temperature was dropped to 18° C. and o/n expression was induced with 0.5 mM IPTG. Cells were harvested by centrifugation and frozen at −80° C.
(§3) The slurry was centrifuged at 1,000×g for 5 min, the supernatant decanted, and the resin suspended in 40 mL of lysis wash buffer (lysis buffer at 0.75 M NaCl). This step was repeated 3× and the resin was transferred to a 2.5 cm glass column. Ten column volumes of wash buffer (0.05 M HEPES, pH 8.0, 0.1 M NaCl, 0.01 M 2-mercaptoethanol, 10%(w/v) glycerol) were applied to the resin followed by 10 column volumes of elution buffer (0.05 M HEPES, pH 8.0, 0.25 M NaCl, 0.01 M 2-mercaptoethanol, 10%(w/v) glycerol, 0.1 M imidazole). Fractions were analyzed by SDS-PAGE and those containing the protein of interest were pooled and concentrated. The concentrated protein was applied to an Amersham Superdex 75 (XK 26/60) column equilibrated in 0.025 M Tris-HCl, pH 7.5, 0.1 M NaCl, 0.01 M 2-mercaptoethanol, 10% (w/v) glycerol. […] Fractions containing the monomeric protein of interest were pooled, concentrated to ˜2 mg/mL, and stored at −80° C.
(§4) The phosphorylation of biotinylated-BAD (S112) peptide by full length recombinant Pim-1, Pim-2, or Pim-3 protein was detected with streptavidin:Allophycocyanin (APC) conjugate and a europium (Eu) labeled antibody directed against phosphorylated-BAD (S112). […] The fluorescence is directly proportional to the amount of phosphorylated BAD peptide present in the reaction. […] A reference compound was included on each assay plate in order to validate that plate; on one plate of every assay run, two additional reference compounds were included. The final buffer conditions were as follows: 60 mM Hepes, pH 7.0, 0.05% BSA, 2 mM DTT. Incubations were carried out at RT (22° C.) for 2 h for Pim-1, 1 hour and 30 min for Pim-3, and 45 min for Pim-2. The reaction was stopped by the addition of 3 mM EDTA, and fluorescence was measured by an HTRF® Rubystar microplate reader. For each plate, percent of control (POC) values were calculated for each well. Values for the IC50 IP were estimated using a standard 4-parameter logistic model.

[2] = system: KMS-12-BM myeloma cell line; test: Pim KMS-12 cell assay (phospho-BAD S112 / total BAD, MSD); conditions: Homo sapiens, KMS-12-BM, read-out: KMS-12-BM IC50 IP, KMS-12-BM cells, phospho-BAD (S112) vs total BAD, 1 hour 50 min with compound
[3] = molecular target: Pim-1 (Homo sapiens (Human), UniProt P11309); test: Pim enzyme assay (HTRF, 96-well), Pim-1; type: biochemical; conditions: full length recombinant Pim-1, biotinylated-BAD (S112) peptide, 10-point curve, 2 h RT, read-out: Pim-1 IC50 IP
Text: as §1, §2, §3, §4

Chain of Pim-2 (Q9P1W9 whole entry): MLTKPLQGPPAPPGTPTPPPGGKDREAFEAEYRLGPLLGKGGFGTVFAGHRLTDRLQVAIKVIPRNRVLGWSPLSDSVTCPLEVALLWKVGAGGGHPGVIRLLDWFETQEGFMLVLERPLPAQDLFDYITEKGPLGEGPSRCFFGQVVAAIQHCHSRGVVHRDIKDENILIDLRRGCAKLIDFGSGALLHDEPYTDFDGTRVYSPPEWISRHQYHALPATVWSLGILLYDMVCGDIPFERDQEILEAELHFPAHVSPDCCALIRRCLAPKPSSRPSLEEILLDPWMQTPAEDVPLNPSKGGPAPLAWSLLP
Chain of Pim-1 (P11309 whole entry): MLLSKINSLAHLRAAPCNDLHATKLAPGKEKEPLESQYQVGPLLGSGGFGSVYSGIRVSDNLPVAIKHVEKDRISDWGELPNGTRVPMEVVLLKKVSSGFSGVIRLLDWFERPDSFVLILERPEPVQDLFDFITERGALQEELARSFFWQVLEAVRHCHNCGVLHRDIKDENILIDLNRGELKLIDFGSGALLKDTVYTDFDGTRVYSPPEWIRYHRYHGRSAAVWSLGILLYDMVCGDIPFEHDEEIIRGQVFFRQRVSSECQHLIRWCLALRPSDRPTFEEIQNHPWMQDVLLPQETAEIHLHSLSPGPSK

Structure (SMILES)	IC50 [1]	IC50 [2]	IC50 [3]
Cc1nc2cccc(-c3cc4c([nH]3)CCNC4=O)c2nc1N[C@H](C)C(N)=O [Example 128, (R)-2-((3-methyl-8-(4-oxo-4,5,6,7-tetrahydro-1H-pyrrolo[3,2-c]pyridin-2-yl)quinoxalin-2-yl)amino)propanamide]	0.222 µM	–	0.204 µM
O=C1NCCc2[nH]c(-c3cccc4ccc(N[C@@H]5CCCNC5)nc34)cc21 [Example 124, (R)-2-(2-(piperidin-3-ylamino)quinolin-8-yl)-6,7-dihydro-1H-pyrrolo[3,2-c]pyridin-4(5H)-one]	0.141 µM	–	0.0064 µM
Cc1nc2cccc(-c3cc4c([nH]3)CCNC4=O)c2nc1N1CCOCC1 [Example 133, 2-(2-methyl-3-morpholinoquinoxalin-5-yl)-6,7-dihydro-1H-pyrrolo[3,2-c]pyridin-4(5H)-one]	0.0998 µM	–	0.0934 µM
O=C1NCCc2[nH]c(-c3cccc4ccc(Oc5cccc(O)c5)nc34)cc21 [Example 109, 2-(2-(3-hydroxyphenoxy)quinolin-8-yl)-6,7-dihydro-1H-pyrrolo[3,2-c]pyridin-4(5H)-one]	0.0158 µM	8.81 µM	–
COc1ccc(Cl)cc1-c1ccc2cccc(-c3cc4c([nH]3)CCNC4=O)c2n1 [Example 88, 2-(2-(5-chloro-2-methoxyphenyl)quinolin-8-yl)-6,7-dihydro-1H-pyrrolo[3,2-c]pyridin-4(5H)-one]	0.166 µM	–	0.0421 µM
O=C1NCC(Cc2ccccc2)c2[nH]c(-c3cccc4cccnc34)cc21 (racemic) [Example 119, rac-7-benzyl-2-(quinolin-8-yl)-6,7-dihydro-1H-pyrrolo[3,2-c]pyridin-4(5H)-one]	0.206 µM	–	0.0394 µM
O=C1NCCc2[nH]c(-c3cccc4ccc(OC5CCNCC5)nc34)cc21 [Example 81, 2-(2-(piperidin-4-yloxy)quinolin-8-yl)-6,7-dihydro-1H-pyrrolo[3,2-c]pyridin-4(5H)-one]	0.0956 µM	–	0.006 µM
Cc1cccc(Oc2ccc3cccc(-c4cc5c([nH]4)CCNC5=O)c3n2)c1 [Example 43, 2-(2-(3-methylphenoxy)-8-quinolinyl)-1,5,6,7-tetrahydro-4H-pyrrolo[3,2-c]pyridin-4-one]	0.0478 µM	–	0.0179 µM
Cc1ccc(C(N)=O)cc1-c1ccc2cccc(-c3cc4c([nH]3)CCNC4=O)c2n1 [Example 232, 4-methyl-3-(8-(4-oxo-4,5,6,7-tetrahydro-1H-pyrrolo[3,2-c]pyridin-2-yl)-2-quinolinyl)benzamide]	0.0529 µM	–	0.0233 µM
O=C1NCCc2[nH]c(-c3cccc4cnc(C5(c6ccccc6)CC5)nc34)cc21 [Example 244, 2-(2-(1-phenylcyclopropyl)quinazolin-8-yl)-6,7-dihydro-1H-pyrrolo[3,2-c]pyridin-4(5H)-one]	0.0179 µM	–	0.0069 µM
Nc1ccc(-c2ccc3cccc(-c4cc5c([nH]4)CCNC5=O)c3n2)c(F)c1 [Example 91, 2-(2-(4-amino-2-fluorophenyl)quinolin-8-yl)-6,7-dihydro-1H-pyrrolo[3,2-c]pyridin-4(5H)-one]	0.0461 µM	–	0.0106 µM
Cc1nc2cccc(-c3cc4c([nH]3)CCNC4=O)c2nc1NC1CCC(=O)N(C)C1 (racemic) [Example 195, rac-2-(2-methyl-3-((1-methyl-6-oxopiperidin-3-yl)amino)quinoxalin-5-yl)-6,7-dihydro-1H-pyrrolo[3,2-c]pyridin-4(5H)-one 2,2,2-trifluoroacetate]	0.177 µM	–	–
CC1CNC(=O)c2cc(-c3cccc4ccc(Cl)nc34)[nH]c21 (racemic) [Example 27, rac-2-(2-chloroquinolin-8-yl)-7-methyl-6,7-dihydro-1H-pyrrolo[3,2-c]pyridin-4(5H)-one]	0.366 µM	–	–
CC(Oc1ccc2cccc(-c3cc4c([nH]3)CCNC4=O)c2n1)C(F)(F)F (racemic) [Example 79, rac-2-(2-((1,1,1-trifluoropropan-2-yl)oxy)quinolin-8-yl)-6,7-dihydro-1H-pyrrolo[3,2-c]pyridin-4(5H)-one]	0.204 µM	–	–
CCCNc1nc2c(-c3cc4c([nH]3)CCNC4=O)cccc2nc1C [Example 191, 2-(2-methyl-3-(propylamino)-5-quinoxalinyl)-1,5,6,7-tetrahydro-4H-pyrrolo[3,2-c]pyridin-4-one]	0.0066 µM	0.376 µM	–
Cc1nc2cccc(-c3cc4c([nH]3)CCNC4=O)c2nc1F [Example 126, 2-(3-fluoro-2-methylquinoxalin-5-yl)-6,7-dihydro-1H-pyrrolo[3,2-c]pyridin-4(5H)-one]	> 1 µM	–	–

Continued, values first:

IC50 [1]	IC50 [2]	IC50 [3]	Structure (SMILES)
0.0089 µM	4.18 µM	–	O=C1NCCc2[nH]c(-c3cccc4ccc(C5(c6ccccc6)CC5)nc34)cc21 [Example 114, 2-(2-(1-phenylcyclopropyl)quinolin-8-yl)-6,7-dihydro-1H-pyrrolo[3,2-c]pyridin-4(5H)-one]
0.182 µM	–	0.029 µM	C[C@H](Nc1ccc2cccc(-c3cc4c([nH]3)CCNC4=O)c2n1)c1ccccc1 [Example 112, (S)-2-(2-((1-phenylethyl)amino)quinolin-8-yl)-6,7-dihydro-1H-pyrrolo[3,2-c]pyridin-4(5H)-one]
0.0135 µM	–	0.0083 µM	O=C1NCCc2[nH]c(-c3cccc4cnc(Nc5ccccc5)nc34)cc21 [Example 251, 2-(2-(phenylamino)quinazolin-8-yl)-6,7-dihydro-1H-pyrrolo[3,2-c]pyridin-4(5H)-one]
0.0081 µM	–	0.0047 µM	C=C(c1ccccc1)c1ccc2cccc(-c3cc4c([nH]3)CCNC4=O)c2n1 [Example 113, 2-(2-(1-phenylvinyl)quinolin-8-yl)-6,7-dihydro-1H-pyrrolo[3,2-c]pyridin-4(5H)-one]
0.0733 µM	–	–	CC1Cc2[nH]c(-c3cccc4ccc(Nc5ccccc5)nc34)cc2C(=O)N1 (single isomer, unassigned) [Example 34, 6-methyl-2-(2-(phenylamino)quinolin-8-yl)-6,7-dihydro-1H-pyrrolo[3,2-c]pyridin-4(5H)-one]
0.061 µM	–	–	CC1CNC(=O)c2cc(-c3cccc4ccc(Oc5ccccc5)nc34)[nH]c21 (racemic) [Example 28, rac-7-methyl-2-(2-phenoxyquinolin-8-yl)-6,7-dihydro-1H-pyrrolo[3,2-c]pyridin-4(5H)-one]
0.0115 µM	5.7 µM	–	O=C1NCCc2[nH]c(-c3cccc4ccc(Sc5ccccc5)nc34)cc21 [Example 5, 2-(2-(phenylthio)quinolin-8-yl)-6,7-dihydro-1H-pyrrolo[3,2-c]pyridin-4(5H)-one]
0.0353 µM	4.1 µM	–	CC1Cc2[nH]c(-c3cccc4ccc(Nc5ccccc5)nc34)cc2C(=O)N1 (single isomer, unassigned) [Example 33, 6-methyl-2-(2-(phenylamino)quinolin-8-yl)-6,7-dihydro-1H-pyrrolo[3,2-c]pyridin-4(5H)-one]
0.0342 µM	6.58 µM	–	CC1Cc2[nH]c(-c3cccc4ccc(Nc5ccccc5)nc34)cc2C(=O)N1 (racemic) [Example 237, rac-6-methyl-2-(2-(phenylamino)quinolin-8-yl)-6,7-dihydro-1H-pyrrolo[3,2-c]pyridin-4(5H)-one]
